Active and inactive are the calls of the source. How the calls were made is not given here.
What was measured:
Test in all cases: PubChem AID 504934
[1] = molecular target: Estrogen receptor beta (Homo sapiens) (UniProt Q92731); conditions: nuclear receptor panel Gal4 luciferase reporter, Erb (ESR2), at 10 µM
[2] = test system: NOR1; conditions: nuclear receptor panel Gal4 luciferase reporter, at 10 µM
[3] = molecular target: Peroxisome proliferator-activated receptor alpha (Homo sapiens) (UniProt Q07869); conditions: nuclear receptor panel Gal4 luciferase reporter, PPARa, at 10 µM
[4] = test system: RARg; conditions: nuclear receptor panel Gal4 luciferase reporter, at 10 µM

Chain of Estrogen receptor beta (Homo sapiens) (Q92731 whole entry, looked up, the tested form may be a part): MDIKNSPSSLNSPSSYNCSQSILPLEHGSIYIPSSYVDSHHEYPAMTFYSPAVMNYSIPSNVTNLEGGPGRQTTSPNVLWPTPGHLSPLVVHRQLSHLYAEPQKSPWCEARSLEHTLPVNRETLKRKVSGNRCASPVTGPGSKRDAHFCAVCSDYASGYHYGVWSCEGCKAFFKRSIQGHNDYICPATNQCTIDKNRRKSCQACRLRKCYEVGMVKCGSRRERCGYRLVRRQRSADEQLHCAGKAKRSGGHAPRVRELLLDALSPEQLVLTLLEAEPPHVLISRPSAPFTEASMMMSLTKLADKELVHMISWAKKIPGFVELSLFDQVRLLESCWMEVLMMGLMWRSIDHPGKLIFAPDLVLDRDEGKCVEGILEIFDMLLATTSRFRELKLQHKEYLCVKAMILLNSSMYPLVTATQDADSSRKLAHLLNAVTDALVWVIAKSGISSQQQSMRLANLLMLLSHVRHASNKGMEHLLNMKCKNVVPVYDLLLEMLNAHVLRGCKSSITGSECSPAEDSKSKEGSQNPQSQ
Chain of Peroxisome proliferator-activated receptor alpha (Homo sapiens) (Q07869 whole entry, looked up, the tested form may be a part): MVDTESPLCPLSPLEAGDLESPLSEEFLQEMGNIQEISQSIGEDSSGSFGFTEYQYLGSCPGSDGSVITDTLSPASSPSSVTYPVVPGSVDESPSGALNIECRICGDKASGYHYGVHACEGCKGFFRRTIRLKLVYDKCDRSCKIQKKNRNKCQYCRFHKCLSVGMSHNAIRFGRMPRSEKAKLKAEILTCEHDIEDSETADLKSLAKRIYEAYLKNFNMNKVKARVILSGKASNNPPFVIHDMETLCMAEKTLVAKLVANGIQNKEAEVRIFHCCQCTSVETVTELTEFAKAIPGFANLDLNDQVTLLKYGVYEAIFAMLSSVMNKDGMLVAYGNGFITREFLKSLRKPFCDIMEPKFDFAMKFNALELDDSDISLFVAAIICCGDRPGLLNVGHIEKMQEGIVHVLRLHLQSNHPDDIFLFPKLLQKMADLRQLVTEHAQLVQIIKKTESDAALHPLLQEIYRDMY

fold change [1]: 0.56 | fold change [2]: 0.87 (inactive) | fold change [3]: 1.11 (inactive) | fold change [4]: 0.56
SMILES: O=c1cc(N2CCN(c3cccc(Cl)c3)CC2)[nH]c(=O)n1C1CCCCC1

— PubChem BioAssay AID504934 (The Scripps Research Institute Molecular Screening Center, 2011)
